The text below walks through data of patent US20240173296A1, “PHARMACEUTICAL COMPOSITION OF (S)-KETOROLAC AND PREPARATION METHOD THEREFOR” (NANJING HERON PHARMACEUTICAL SCIENCE AND TECHNOLOGY CO., …, priority 2021, published 2024).

For data set [1] the following is noted: standard animal model of analgesic activity; cited from earlier work.
Data set [2] can be described thus: Pharmacokinetic testing after single intravenous administration in beagle dogs. Type of data set: in vivo. The note with it: for AUC(0-inf) / AUC(0-t) / half-life / MRT last / clearance / Vd: dog, mean ± standard deviation; for AUC(0-inf) / AUC(0-t) / half-life / MRT last: plasma analyte = label; for MRT last: read-out: MRT0-t; for clearance / Vd: plasma; for Vd: read-out: Vss. As to the method: (§1) Representative batches of lyophilized powder injection of (S)-ketorolac described in the present application were selected to examine the drug metabolism in vivo of beagle dogs and cynomolgus monkeys. The mode of administration was single intravenous administration. The concentration of (S)-ketorolac and (R)-ketorolac in plasma samples was measured by LC-MS/MS, and the blood drug concentration-time curve was plotted to obtain the main pharmacokinetic parameters and examine the chiral transformation of (S)-ketorolac and (R)-ketorolac in animals.

Data set [3] in a line: Solubility of (S)-ketorolac in solvents. Type of data set: physicochemical.
Data set [4] is described as follows: Optical stability of (S)-ketorolac in phosphate buffer solutions with different pH values (Test Example 2). In kind it is physicochemical. The protocol:
(§2) Phosphate buffer solutions with a pH range of 6.5 to 7.8 were prepared with reference to Chinese Pharmacopoeia (2020 edition). The appropriate amount of (S)-ketorolac (free acid) was added to each phosphate buffer to prepare mixtures of about 20 mg/ml. Each solution was placed in an air bath shaker and shaken at 25° C. for 24 hours, during which the dissolution of (S)-ketorolac in each mixture was observed. The remaining samples were reserved at 25° C. and 40° C., and the formation of isomers was detected after 2 days and 30 days, as shown in Table 2.

The nature of the next data set: in vivo. The following applies: cynomolgus monkey, iv. The protocol: as §1
A short description of data set [5]: Solubility of (S)-ketorolac in phosphate buffer solutions with different pH (Test Example 2). The note with it: 25 °C, aqueous buffer, thermodynamic from solid, read-out: Saturation solubility at 25° C. In kind it is physicochemical. The protocol:
as §2

Setting [6] is: single intravenous (S)-ketorolac 0.16 mg/kg.
Setting [7] is: single intravenous (S)-ketorolac 3.2 mg/kg.

≈ marks a conversion by molar mass, not a printed value. Read-outs that look alike come from different tables or passages of the source.

As to `O=C(c1ccccc1)c1ccc2n1CCC2C(=O)O` (racemic) [ketorolac tromethamine], the “analgesic activity relative to that of Aspirin” value in data set [1] was 800 times.

For the compound `O=C(c1ccccc1)c1ccc2n1CC[C@H]2C(=O)O` [(R)-ketorolac], in data set [2] (setting [6]), the AUC(0-inf) (usually the area under the concentration-time curve extrapolated to infinity) amounted to 79.2 ± 57 ng·h/mL; the AUC(0-t) (commonly exposure summed from dosing to a finite time, without extrapolation to infinity) came to 11.7 ± 1.21 ng·h/mL; the half-life (commonly how long it takes for the measured level to halve) was 22.7 ± 16.8 h; the MRT last worked out at 3.07 ± 0.144 h. In data set [2] (setting [6]), the “Chiral transformation rate = (AUC0-t)R/[(AUC0-t)S + (AUC0-t)R] × 100” value is recorded as 2.10%. Moreover, in data set [2] (setting [7]), the area under the curve AUC(0-t) was found to be 724 ± 259 ng·h/mL, the MRT last was found to be 3.52 ± 0.33 h and the “Chiral transformation rate = (AUC0-t)R/[(AUC0-t)S + (AUC0-t)R] × 100” value turned out to be 1.71%.

On to `O=C(c1ccccc1)c1ccc2n1CC[C@@H]2C(=O)O` [(S)-ketorolac], for which the “solubility in anhydrous ethanol” value in data set [3] (anhydrous ethanol) is listed as “sparingly soluble”. Moreover, the solubility in dichloromethane entry in data set [3] (dichloromethane) is on record as “slightly soluble”. For the same compound, the solubility in dimethylformamide entry in data set [3] (dimethylformamide) is listed as “freely soluble”. Moreover, the solubility in methanol entry in data set [3] (methanol) was “soluble”. In addition, in data set [3] (water), the solubility in water result was “nearly or completely insoluble”. The Isomer purity determined worked out at 0.20% in data set [4] (phosphate buffer pH 6.5, 25° C., Day 2); 3.43% in data set [4] (phosphate buffer pH 6.5, 25° C., Day 30); 27.90% in data set [4] (phosphate buffer pH 6.5, 40° C., Day 30); 0.21% in data set [4] (phosphate buffer pH 6.8, 25° C., Day 2); 3.22% in data set [4] (phosphate buffer pH 6.8, 25° C., Day 30); 28.14% in data set [4] (phosphate buffer pH 6.8, 40° C., Day 30). Besides, the Isomer purity determined in data set [4] (phosphate buffer pH 7.0, 25° C., Day 2) is reported as 0.22%; in data set [4] (phosphate buffer pH 7.0, 25° C., Day 30), 3.20%; in data set [4] (phosphate buffer pH 7.0, 40° C., Day 30), 27.11%; in data set [4] (phosphate buffer pH 7.2, 25° C., Day 2), 0.22%; in data set [4] (phosphate buffer pH 7.2, 25° C., Day 30), 3.34%; in data set [4] (phosphate buffer pH 7.2, 40° C., Day 30) it was 27.71%. Also, the Isomer purity determined is 0.21% in data set [4] (phosphate buffer pH 7.4, 25° C., Day 2); 3.31% in data set [4] (phosphate buffer pH 7.4, 25° C., Day 30); 23.91% in data set [4] (phosphate buffer pH 7.4, 40° C., Day 30); 0.22% in data set [4] (phosphate buffer pH 7.6, 25° C., Day 2); 3.43% in data set [4] (phosphate buffer pH 7.6, 25° C., Day 30); 24.35% in data set [4] (phosphate buffer pH 7.6, 40° C., Day 30). The Isomer purity determined stood at 0.51% in data set [4] (phosphate buffer pH 7.8, 25° C., Day 2); 4.92% in data set [4] (phosphate buffer pH 7.8, 25° C., Day 30); 21.28% in data set [4] (phosphate buffer pH 7.8, 40° C., Day 30). In addition, the “optical purity of (S)-ketorolac” value in data set [4] (samples in the solution state (phosphate buffer), stored at 25° C. for one month) is recorded as “greater than or equal to 95%”. Further, the clearance – broadly, a measure of how efficiently the substance is removed, as volume per time – in data set [2] (setting [6]) was 3.22 mL/min/kg; in data set [2] (setting [7]) it was 0.472 mL/min/kg; in the data set “in vivo” (0.24 mg/kg) it was 1.77 mL/min/kg; in the data set “in vivo” (2.4 mg/kg), 1.7 mL/min/kg. Further, the Vd in data set [2] (setting [6]) stood at 1.29 ± 0.432 L/kg; in data set [2] (setting [7]) it was 0.391 L/kg; in “in vivo” (0.24 mg/kg), 0.224 ± 0.0778 L/kg; in the data set “in vivo” (2.4 mg/kg) it was 0.18 ± 0.0381 L/kg. Besides, the AUC(0-inf) in data set [2] (setting [6]) amounted to 950 ± 385 ng·h/mL; in data set [2] (setting [7]), 117000 ± 25900 ng·h/mL. The AUC(0-t) in data set [2] (setting [6]) was 545 ± 147 ng·h/mL; in data set [2] (setting [7]), 41600 ± 3540 ng·h/mL. Moreover, the half-life in data set [2] (setting [6]) is 7.13 ± 2.93 h; in data set [2] (setting [7]), 10.3 ± 2.18 h. In addition, the results for the MRT last in data set [2] (setting [6]) and in data set [2] (setting [7]) were 1.61 ± 0.4 h and 2.5 ± 0.149 h, respectively. The solubility at 24 h in data set [5] (phosphate buffer solution pH 6.5) stood at 1860 µg/mL (≈ 7.29 mM); in data set [5] (phosphate buffer solution pH 6.8), 3030 µg/mL (≈ 11.9 mM); in data set [5] (phosphate buffer solution pH 7.0) it was 4090 µg/mL (≈ 16 mM); in data set [5] (phosphate buffer solution pH 7.2), 4520 µg/mL (≈ 17.7 mM); in data set [5] (phosphate buffer solution pH 7.4), 4720 µg/mL (≈ 18.5 mM); in data set [5] (phosphate buffer solution pH 7.6), 5220 µg/mL (≈ 20.4 mM). In data set [5] (phosphate buffer solution pH 7.8), the solubility at 24 h was not below 24200 µg/mL.
